In patent US20110117106A1, “USES OF CALPAIN INHIBITORS TO INHIBIT INFLAMMATION” (priority 2008, published 2011):
Entries after “also recorded” stand apart in the source; their conditions may differ.

Columns and labels:
[1] = molecular target: T1, recombinant human myeloperoxidase (Homo sapiens, UniProt P05164); test: Myeloperoxidase assay with recombinant enzyme; format: biochemical; details: 0.0125 μg/ml enzyme, 20 μM calpeptin
T1 construct: purchased R&D
T1 sequence (P05164 49-745): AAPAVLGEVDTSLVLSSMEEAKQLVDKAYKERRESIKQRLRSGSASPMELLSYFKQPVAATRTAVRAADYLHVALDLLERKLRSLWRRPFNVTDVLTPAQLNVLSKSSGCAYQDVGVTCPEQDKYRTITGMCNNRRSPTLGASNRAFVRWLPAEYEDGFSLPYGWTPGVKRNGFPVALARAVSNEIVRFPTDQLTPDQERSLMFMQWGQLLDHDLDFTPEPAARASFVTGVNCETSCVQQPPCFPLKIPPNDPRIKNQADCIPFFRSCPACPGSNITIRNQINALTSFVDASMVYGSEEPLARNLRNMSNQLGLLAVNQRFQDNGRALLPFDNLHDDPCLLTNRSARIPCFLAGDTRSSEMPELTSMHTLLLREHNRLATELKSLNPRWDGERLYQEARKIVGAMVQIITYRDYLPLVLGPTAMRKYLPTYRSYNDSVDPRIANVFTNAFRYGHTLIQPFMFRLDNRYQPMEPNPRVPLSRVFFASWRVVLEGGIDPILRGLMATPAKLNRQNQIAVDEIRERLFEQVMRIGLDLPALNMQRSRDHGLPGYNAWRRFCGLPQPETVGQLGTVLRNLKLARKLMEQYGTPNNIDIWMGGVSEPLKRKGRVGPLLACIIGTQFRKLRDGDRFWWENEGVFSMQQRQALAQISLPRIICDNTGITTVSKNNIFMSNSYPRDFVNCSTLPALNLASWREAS

[2] = system: PMN transmigration across 16HBE airway epithelial monolayers; test: PMN transmigration across polarized 16HBE monolayers (myeloperoxidase readout); format: cell-based, human; details: 20 μM calpeptin
Description: Human PMNs were isolated according to standard techniques from venous blood from healthy consenting adults in accordance with a protocol approved by the Institutional Review Board of Human Subjects at Columbia University (IRB-AAAC5450). PMNs were isolated using dextran sedimentation and Hypaque-Ficoll (Sigma) density-gradient separation, followed by hypotonic lysis of erythrocytes as previously described (Boyum et al, 1968). Purified PMNs were resuspended in HBSS with Ca^2+ and Mg^2+ before use in migration experiments. Migration assays were performed across 16HBE monolayers plated on the underside of 3 μm transwells which were coated with minimal essential media containing 0.01 mg/ml fibronectin, 0.03 mg/ml bovine collagen type I, 0.1 mg/ml BSA. After allowing the cells to adhere overnight, transwells were flipped over and inserted into 24-well plates. 500 μl of media was added to the lower chamber (apical surface of the cell) and 100 μl of media added to the transwell (basolateral surface of the cell). When the cells became confluent, they were polarized with an air liquid interface for 5 days by removing the 500 μl of media in the lower chamber. Selected wells were preincubated for 30 min with 20 μM calpeptin in the apical and basolateral chambers. Monolayers were stimulated with 250 μl heat killed PAO1 (10^7 CFU) or […] […]

PMN myeloperoxidase = PMN myeloperoxidase (Homo sapiens, UniProt P05164); test: Myeloperoxidase activity of PMNs; details: 10^4 PMNs, 20 μM calpeptin
[3] = system: PMN recruitment into the lung; test: Neonatal mouse model of intranasal P. aeruginosa PAO1 infection; format: in vivo
Protocol: Seven day old C57BL/6 wild type or tlr2^−/− mice (Jackson Laboratories) were intranasally inoculated with 10 μl PAO1 (10^8 CFU) (Tang et al, 1996). Control mice received 10 μl of PBS. Mice were pretreated with 20 mg/kg calpeptin or DMSO in PBS by intraperitoneal (i.p.) route 16 h and 2 h before intranasal inoculation and a third dose was administered by i.p. route 30 min post infection. Lungs were harvested 4 h after infection and cell suspensions used for PMN detection and immunoblotting. For neutrophil detection, lung cell suspensions were double stained with phycoerythrin (PE)-labeled anti-CD45 (to detect leukocytes) and fluorescein isothiocyanate (FITC)-labeled anti-Ly6G antibodies (to detect neutrophils) (BD Pharmingen) and analyzed by flow cytometry with a FACSCalibur using Cell Quest software (Becton Dickinson) (Gomez et al, 2004). Irrelevant, isotype-matched antibodies were used as a control. Cells were gated on the basis of their forward scatter and side scatter profile and analyzed for double expression of CD45 and Ly6G. Immunoblots were performed on 10 μg of protein obtained by lysing lung cells in OGP buffer as described herein for 1HAEo-cells. Mice protocol number AAAA5999 was approved by the Institutional Animal Care and Use Committee at Columbia University.

PMNs = test: PMN migration across a porous Transwell without epithelial cells; format: cell-based, human; set-up: dose or concentration left out as unconfirmed; details: in response to live PAO1, heat-killed PAO1 or fMLP
[4] = system: PMN recruitment into the lung and airway lumen; test: Adult C57BL/6 mouse P. aeruginosa infection with bronchoalveolar lavage; format: in vivo; details: adult C57BL/6, i.p. calpeptin, 2 hr infection, versus vehicle
Protocol: To test the effects of calpain inhibition on the transmigration of PMNs into P. aeruginosa-infected airways, bronchoalveolar lavage (BAL) experiments were performed on adult C57BL/6 mice. Mice were treated with i.p. calpeptin or vehicle and intranasally infected with P. aeruginosa for 2 hr. PMNs from BAL or whole-lung suspension were quantified by flow cytometry. Compared to vehicle-treated controls, calpeptin-treated mice had 37% fewer PMNs recruited into the whole lung and 90% fewer into the airway lumen, indicating a more pronounced effect on the epithelial junctions (FIG. 8D). […] Thus, recruitment of PMNs into the murine lung and airway lumen in response to P. aeruginosa is facilitated by calpain activity and its effects on junctional proteins at the mucosal surface.

CCCC[C@@H](C=O)NC(=O)[C@H](CC(C)C)NC(=O)OCc1ccccc1 [calpeptin, Z-Leu-Nle-CHO]
Myeloperoxidase activity of recombinant human myeloperoxidase [1]: nor did calpeptin inhibit; also recorded: not inhibited | Heat killed P. aeruginosa PAO1 induced PMN transmigration ([2]; p<0.001): inhibited | P3C-induced PMN transmigration ([2]; p<0.05): inhibited | Myeloperoxidase activity / production by PMNs (PMN myeloperoxidase): not inhibited | Fewer PMNs recruited into the lung ([3]; 7-day old mice, i.p. calpeptin, 4 hours following intranasal P. aeruginosa, versus vehicle-treated, p<0.05): 31% | Occludin and E-cadherin cleavage products in whole lung lysates ([3]; infected wild type mice, i.p. calpeptin versus vehicle): substantially decreased | PMN recruitment in tlr2−/− animals ([3]; tlr2−/− pups, calpain inhibition): not further diminished | Migration of PMNs across a porous Transwell (without epithelial cells) (PMNs): no effect; also recorded: not affected | Migration of PMNs across a porous Transwell (without epithelial cells) (PMNs; listed as Calpeptin): did not directly inhibit | Fewer PMNs recruited into the airway lumen (BAL) [4]: 90% | Fewer PMNs recruited into the whole lung [4]: 37%
